Results as given in patent US20220089663A1, “PROTEINS AND FLUOROPHORE-CONTAINING COMPOUNDS SELECTIVE FOR NaV1.7” (MEMORIAL SLOAN KETTERING CANCER CENTER, priority 2019, published 2022).

Test system: CVH mice
Test: visceromotor response (VMR) to colorectal distension in chronic visceral hypersensitivity (CVH) mice
Format: in vivo, mouse
Conditions: intra-colonic 200 nM
Description: Model of Chronic Visceral Hypersensitivity (CVH). All experiments were performed in accordance with the guidelines of the Animal Ethics Committees of the South Australian Health and Medical Research Institute (SAHMRI) and Flinders University. Male C57 BL/6 mice were used in all experiments.
Colitis was induced by administration of Trinitrobenzene Sulphonic acid (TNBS) as described previously (Castro et al., Gut 66(6):1083-1094 (2017); Osteen et al., Nature 534: 494-499 (2016)). Briefly, 13-week-old mice were fasted overnight with access to 5% glucose solution. After the fasting period, isofluorane anaesthetized mice were administered an intracolonic enema of 0.1 mL TNBS ([…] in 30% EtOH) via a polyethylene catheter inserted 3 cm past the anus. […]
In vivo Visceromotor Responses (VMR) to Colorectal Distension (CRD). […] The EMG electrodes were relayed to a data acquisition system and the signal was recorded (NL100AK headstage), amplified (NL104), filtered (NL 125/126, Neurolog, Digitimer Ltd, bandpass 50-5000 Hz) and digitized (CED 1401, Cambridge Electronic Design, Cambridge, UK) to a PC for off-line analysis using Spike2 (Cambridge Electronic Design). […] To quantify the magnitude of the VMR at each distension pressure, the area under the curve (AUC) during the distension (20 s) was corrected for the baseline activity (AUC pre-distension, 20 s).

For `CC[C@H](C)[C@H](NC(=O)[C@H](CCCCN)NC(=O)[C@@H]1CSSC[C@@H]2NC(=O)[C@@H]3CCCN3C(=O)[C@H](CCCNC(=N)N)NC(=O)[C@H](CCC(=O)O)NC(=O)[C@H](CO)NC(=O)[C@H](CC(=O)O)NC(=O)[C@@H]3CSSC[C@H](NC(=O)[C@H](C(C)C)NC(=O)[C@H](CC(C)C)NC(=O)CNC(=O)[C@H](CCC(=O)O)NC(=O)[C@H](CSSC[C@H](NC(=O)[C@@H](N)Cc4ccc(O)cc4)C(=O)N[C@@H](CCC(N)=O)C(=O)N[C@@H](CCCCN)C(=O)N[C@@H](Cc4ccccc4)C(=O)N[C@@H](CC(C)C)C(=O)N[C@@H](Cc4c[nH]c5ccccc45)C(=O)N[C@@H]([C@@H](C)O)C(=O)N3)NC2=O)C(=O)N[C@@H](CCCNC(=N)N)C(=O)N[C@@H](CC(C)C)C(=O)N[C@@H](Cc2c[nH]c3ccccc23)C(=O)N1)C(=O)N[C@@H](CC(N)=O)C(N)=O` [sHsp1a], the “VMR to colorectal distension compared to CVH vehicle treated animals” value was “significantly reduced the VMR”.
